Series [1] can be described thus: formulation of lonafarnib into a liquid vehicle with 2-hydroxypropyl beta cyclodextrin. The settings on record: 20% 2-hydroxypropyl beta cyclodextrin, lonafarnib 12 mg/ml. Type of series: physicochemical. The procedure:
A prior publication describing formulation of lonafarnib into a liquid vehicle with a cyclodextrin is known (Hernandez et al., Science Translational Medicine, 11, eaat3005 (2019)), but based on the disclosed data, even using high concentration (20%) of 2-hydroxypropyl beta cyclodextrin (hydroxypropyl betadex), a suspension of lonafarnib was obtained for the (pre)clinically relevant concentration of the drug (12 mg/ml). […] Consequently, present invention provides a significant formulation improvement over the teachings of said journal publication.

The conditions of series [2]: water; cited from earlier work.
The conditions of series [3]: 20% 2-hydroxypropyl beta cyclodextrin, lonafarnib 12 mg/ml; cited from earlier work.

Values after ≈ are worked out from the molar mass of the structure shown.

In the case of `NC(=O)N1CCC(CC(=O)N2CCC([C@H]3c4ncc(Br)cc4CCc4cc(Cl)cc(Br)c43)CC2)CC1` [Lonafarnib], the “physical state of liquid formulation obtained (experiment reproduced by Cyclolab Ltd.)” value in series [1] is recorded as “rough suspension, unsuitable for parenteral application”. Also, in series [2], the aqueous solubility (in general, the dissolved amount per volume that the medium holds) was 0.8 µg/mL (≈ 1.25 µM). Moreover, the “physical state of liquid formulation obtained (Hernandez et al. 2019)” value in series [3] is reported as “suspension”.
